Reference: PMC3835680, “Inhibition of Nutlin-Resistant HDM2 Mutants by Stapled Peptides” (PLoS ONE, 2013)
Entries after “also recorded” stand apart in the source; their conditions may differ. FAM = carboxyfluorescein

Experiments:
[1] = target: T1, HDM2 (1-125) Q24R, purified (human, UniProt Q00987 1-125, Q24R); test: fluorescence polarisation; competitive fluorescence anisotropy titrations against FAM-labelled 12-1 peptide with purified HDM2 (1-125); apparent Kds; PBS pH 7.4, 3% DMSO, 0.1% Tween 20
T1 construct: source: E. coli BL21 DE3, purified (GST column, PreScission cleavage, ResourceS)

[2] = target: T2, HDM2 (1-125) M62A, purified (human, UniProt Q00987 1-125, M62A); test: as above
T2 construct: also called HDM2-M62A; source: E. coli BL21 DE3, purified (GST column, PreScission cleavage, ResourceS)

[3] = target: T3, HDM2 (1-125) P20L, purified (human, UniProt Q00987 1-125, P20L); test: as above
T3 construct: source: E. coli BL21 DE3, purified (GST column, PreScission cleavage, ResourceS)

[4] = target: T4, HDM2 (1-125), wild-type, purified (human, UniProt Q00987 1-125); test: as above
T4 construct: source: E. coli BL21 DE3, purified (GST column, PreScission cleavage, ResourceS)

[5] = system: wild-type and mutant (M62A, Q24R) HDM2; p53-dependent genes in HCT116 p53^+/+ cells; test: RT-qPCR of p53-regulated genes in HCT116 p53+/+ cells transfected with HDM2 variants; format: cell-based; conditions: Nutlin 10 µM; M62A and Q24R compared to wild-type; 24 h post-transfection; RT-qPCR (n=2)
Source text: In all cases, the total amount of plasmid DNA transfected per well was equilibrated by addition of the parental vector pcDNA3.1a(+).

HDM2 Y104G = conditions: mutation in secondary Nutlin binding site; ref [54]; cited from earlier work
Source text: Studies have shown that K51 of HDM2 interacts with E23 and E25 of HDM ...

HDM2 M62 = conditions: ref [19]; cited from earlier work
Source text: Modelling studies show the hydrophobic hydrocarbon chain comprising the staple interacts with HDM2 in the vicinity of M62 (Figure 6). Whilst the M62A mutation impacts negatively on binding of both stapled peptide and p53 compared to wild type HDM2, the presence of additional “fall-back” interactions (apart from M62, see below) results in marginal overall loss of binding by these ligands. […] Mutation to alanine causes marg ...

[6] = system: HDM2-p53 interaction (wild-type HDM2); test: In vitro pull-down assay, p53-HDM2 wild-type; format: binding; conditions: 10 µM, IVT-expressed proteins
Source text: Single mutant HDM2 clones were generated by Quickchange mutagenesis (Stratagene) of parental HDM2-PET22b using appropriate primers 1-6. The constructs were amplified with primers petF2 and petR to make HDM2 amplicons with T7 promoter and ribosome binding site required for in vitro transcription-translation (IVT) of wild-type or mutant HDM2. Primers 1-6 were used to introduce mutations into the parental pCMV-HDM2 mammalian expression construct by Quickchange mutagenesis. Both the HDM2-PET22b and pCMV-HDM2 constructs additionally encode a C-terminal HA tag. The plasmid p53-PET22b was also amplified with petF2 and petR to make template for IVT of wild-type p53.
Protein G beads (Invitrogen) were incubated with anti-HA (1 µg per 10 µL beads) for 1 hour in PBST-3%BSA and subsequently washed twice in PBST-0.1%BSA. IVT-expressed wild-type or mutant HDM2 was incubated with the beads on a rotator for 30 mins. […] IVT-expressed p53 was added to the mixture and incubation allowed for 1 hour. Beads were finally washed thrice in PBST-0.1%BSA and thrice with PBS, and bound proteins eluted by resuspension in 20 µL SDS-PAGE loading buffer and incubation at 95°C for 5 minutes. […]

[7] = system: p53 (1-81) - HDM2 (7-134) interaction, wild-type, Q24R and M62A, in BHK cells; test: Fluorescent 2-Hybrid (F2H) co-localization assay; format: cell-based; conditions: 1 hour at 37°C, titration, difference particularly evident at 1-10 µM for Nutlin, n=4
Method: Interaction (%) was determined as the ratio of cells showing co-localization of fluorescent signals at the nuclear spot to the total number of evaluated cells. To enable comparison between the experiments, a normalization step was performed. For each independent experiment, the interaction ratios in treated wells were normalized to the interaction ratios in control (untreated) wells:
I % = 100% * Interactions_treated/Interactions_untreated
In this way, the control values in each experiment are taken to be 100%. For automated image acquisition an INCell Analyzer 1000 with a 20X objective (GE Healthcare) was used. Automated image segmentation and analysis was performed with the corresponding INCell Workstation 3.6 software. At least 100 co-transfected cells were analyzed per well. Titrations were carried out independently three to five times.
For the F2H assay, significance (t-test) is denoted relative to the percentage interactions observed for wild-type HDM2 under the indicated treatment conditions. For transcript analysis by real-time PCR, two-way ANOVA with Bonferroni post test was performed using GraphPad Prism software.

HDM2 (1-125) M62A = target: T5, HDM2 (1-125) M62A (Homo sapiens, UniProt Q00987, M62A); test: Fluorescence anisotropy, competitive titration, HDM2 M62A; format: binding; conditions: M62A compared to wild-type
T5 construct: using purified HDM2 (1-125) and carboxyfluorescein (FAM) labeled 12-1 peptide; GST (N, cleaved yes); made in house; host or cells: E. coli BL21 DE3
Method: (§1) Cells harbouring the GST fusion constructs were grown in LB medium at 37°C to an OD600 of ~0.6 and induction was carried out with 1 mM IPTG at room temperature. Cells were harvested by centrifugation and the cell pellets were resuspended in 50 mM Tris pH 8.0, 10% sucrose and then sonicated. The sample was next centrifuged for 60 mins at 17,000 g at 4°C. The supernatant was applied to a 5 mL FF GST column (Amersham) pre-equilibrated in wash buffer (50 mM Tris-HCl pH 8.0, 150 mM NaCl, 1 mM DTT). The column was then further washed by 6 volumes of wash buffer. HDM2 constructs were then purified from the column by cleavage with Precission protease (GE Lifesciences). 10 units of precission protease, in one column volume of wash buffer, were injected onto the column. The cleavage reaction was allowed to proceed overnight at 4°C. The cleaved protein was then eluted off the column with wash buffer. Protein fractions were analyzed with SDS page gel and concentrated using Centricon (3.5 kDa MWCO) concentrator. […] Protein fractions were analyzed with SDS page gel and concentrated using a Centricon (3.5 kDa MWCO) concentrator, Millipore.
(§2) All titrations were carried out in triplicate. Curve-fitting was carried out using Prism 4.0 (GraphPad).

[8] = system: M62A HDM2 / p53 transactivation in p53/MDM2-null DKO cells; test: p53 reporter assay in p53/MDM2-null DKO cells, HDM2 M62A; format: cell-based, mouse; conditions: stapled peptide, 20 µM, mean ± SD (n=2)
Method: (§5) Mouse embryonic fibroblast p53/Mdm2 double-knockout (DKO) cells (a kind gift from Guillermina Lozano) [30] and H1299 p53^−/− cells [31] were maintained in Dulbecco's modified Eagle's medium (DMEM) with 10% (v/v) foetal calf serum (FCS) and 1% (v/v) penicillin/streptomycin. The cells were seeded at 1.0 × 10^5 cells/well in 6-well plates, 24 hours prior to transfection. Cells were co-transfected with wild-type or mutant HDM2 plasmid, p53-pcDNA plasmid, LacZ reporter plasmid and luciferase plasmid using TurboFect transfection reagent (Thermo Scientific) according to the manufacturer’s instructions. […] In all cases, the total amount of plasmid DNA transfected per well was equilibrated by addition of the parental vector pcDNA3.1a(+).
(§6) DKO cells were harvested 24hours after transfection and β-galactosidase activities were assessed using the Dual-light System (Applied Biosystems) according to the manufacturer's protocol. The β-galactosidase activity was normalized with luciferase activity for each sample.

HDM2 (1-125) P20L = target: T6, HDM2 (1-125) P20L (Homo sapiens, UniProt Q00987, P20L); test: Fluorescence anisotropy, competitive titration, HDM2 P20L; format: binding; conditions: P20L compared to wild-type
T6 construct: using purified HDM2 (1-125) and carboxyfluorescein (FAM) labeled 12-1 peptide; GST (N, cleaved yes); made in house; host or cells: E. coli BL21 DE3
Method: as §1, §2

[9] = system: HDM2-p53 interaction (M62A HDM2); test: In vitro pull-down assay, p53-HDM2 M62A; format: binding; conditions: 10 µM, IVT-expressed proteins
Source text: (§3) Single mutant HDM2 clones were generated by Quickchange mutagenesis (Stratagene) of parental HDM2-PET22b using appropriate primers 1-6. The constructs were amplified with primers petF2 and petR to make HDM2 amplicons with T7 promoter and ribosome binding site required for in vitro transcription-translation (IVT) of wild-type or mutant HDM2. Primers 1-6 were used to introduce mutations into the parental pCMV-HDM2 mammalian expression construct by Quickchange mutagenesis. Both the HDM2-PET22b and pCMV-HDM2 constructs additionally encode a C-terminal HA tag.
(§4) Protein G beads (Invitrogen) were incubated with anti-HA (1 µg per 10 µL beads) for 1 hour in PBST-3%BSA and subsequently washed twice in PBST-0.1%BSA. IVT-expressed wild-type or mutant HDM2 was incubated with the beads on a rotator for 30 mins. […] IVT-expressed p53 was added to the mixture and incubation allowed for 1 hour. Beads were finally washed thrice in PBST-0.1%BSA and thrice with PBS, and bound proteins eluted by resuspension in 20 µL SDS-PAGE loading buffer and incubation at 95°C for 5 minutes. Both the eluates and inputs were subjected to electrophoresis, transferred to nitrocellulose membranes and probed for p53 with horseradish peroxidise conjugated DO1 antibody (Santa Cruz) or for HDM2 with anti-HA antibody followed by rabbit anti-mouse (Dakocytomation).

[10] = system: wild-type HDM2 / p53 transactivation in p53/MDM2-null DKO cells; test: p53 reporter assay in p53/MDM2-null DKO cells, wild-type HDM2; format: cell-based, mouse; conditions: stapled peptide, 20 µM, mean ± SD (n=2)
Method: as §5, §6

HDM2 (1-125) Q24R = target: T7, HDM2 (1-125) Q24R (Homo sapiens, UniProt Q00987, Q24R); test: Fluorescence anisotropy, competitive titration, HDM2 Q24R; format: binding; conditions: Q24R compared to wild-type
T7 construct: using purified HDM2 (1-125) and carboxyfluorescein (FAM) labeled 12-1 peptide; GST (N, cleaved yes); made in house; host or cells: E. coli BL21 DE3
Method: as §1, §2

[11] = system: HDM2-p53 interaction (Q24R HDM2); test: In vitro pull-down assay, p53-HDM2 Q24R; format: binding; conditions: 10 µM, IVT-expressed proteins
Source text: as §3, §4

T3 sequence (Q00987 1-125 P20L): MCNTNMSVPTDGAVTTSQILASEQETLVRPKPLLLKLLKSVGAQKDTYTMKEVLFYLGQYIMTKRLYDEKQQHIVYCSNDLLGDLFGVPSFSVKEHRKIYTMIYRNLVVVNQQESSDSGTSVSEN
T1 sequence (Q00987 1-125 Q24R): as the sequence (Q00987 1-125 P20L) above, with L20P, Q24R counted along it
T2 sequence (Q00987 1-125 M62A): as the sequence (Q00987 1-125 P20L) above, with L20P, M62A counted along it
T4 sequence (Q00987 1-125): as the sequence (Q00987 1-125 P20L) above, with L20P counted along it
T6 sequence (Q00987 1-125 P20L): as the sequence (Q00987 1-125 P20L) above
T7 sequence (Q00987 1-125 Q24R): as the sequence (Q00987 1-125 P20L) above, with L20P, Q24R counted along it
T5 sequence (Q00987 1-125 M62A): as the sequence (Q00987 1-125 P20L) above, with L20P, M62A counted along it

Molecule: P53 peptide (ligand of Table 1)
- Kd [1]: 10.4 nM
- Kd [2]: 29.6 nM
- Kd [3]: 17.2 nM
- Kd [4]: 13.9 nM

Molecule: COc1ccc(C2=N[C@@H](c3ccc(Cl)cc3)[C@@H](c3ccc(Cl)cc3)N2C(=O)N2CCNC(=O)C2)c(OC(C)C)c1 [Nutlin]
- p53 activation of p21, gadd45α and 14-3-3σ transcript levels, mutants versus wild-type HDM2 [5]: significant reduction of p53 transcriptional activity was observed for the M62A and Q24R mutants compared to wild-type
- Binding to HDM2 Y104G (HDM2 Y104G): recalcitrant to Nutlin binding
- Effect of loss of M62 contact on Nutlin binding (HDM2 M62): major loss of binding
- Inhibition of p53-HDM2 interaction (pull-down, Western blot) [6]: strong repression of the HDM2-p53 interaction; also recorded: inhibits p53-HDM2 interaction
- Dissociation of p53-HDM2 complex, mutants (Q24R, M62A) versus wild-type (F2H) [7]: reduced dissociation of mutant N-terminal domains from p53, indicating Nutlin resistance; also recorded: increased dissociation of WT-p53 complex compared to Q24R/M62A-p53 complexes

Molecule: CC(=O)N[C@H](C(=O)N[C@@H](CO)C(=O)N[C@@H](Cc1ccccc1)C(=O)N[C@]1(C)CCCCCCC=CCCC[C@@](C)(C(N)=O)NC(=O)[C@H](CC(C)C)NC(=O)[C@H](CC(C)C)NC(=O)[C@H](C)NC(=O)[C@H](Cc2c[nH]c3cc(Cl)ccc23)NC(=O)[C@H](Cc2ccc(O)cc2)NC(=O)[C@H](CCC(=O)O)NC1=O)[C@@H](C)O [MO11]
- Change of binding affinity versus wild-type HDM2 (HDM2 (1-125) M62A): very slight perturbation of binding
- p53 reporter activity restored (percentage of activity with p53-only transfection) [8]: 47%
- Inhibition of p53-HDM2 interaction (pull-down, Western blot) [6]: strong repression of the HDM2-p53 interaction; also recorded: inhibition of p53 binding to both WT and mutant HDM2
- Change of binding affinity versus wild-type HDM2 (HDM2 (1-125) P20L): not perturbed
- Inhibition of p53-HDM2 interaction (pull-down, Western blot) [9]: able to abrogate the mutant HDM2-p53 interaction as efficiently as Nutlin inhibits the wild-type HDM2-p53 interaction; also recorded: inhibition of p53 binding to both WT and mutant HDM2
- p53 reporter activity restored (percentage of activity with p53-only transfection) [10]: 51%
- Change of binding affinity versus wild-type HDM2 (HDM2 (1-125) Q24R): not perturbed
- Inhibition of p53-HDM2 interaction (pull-down, Western blot) [11]: able to abrogate the mutant HDM2-p53 interaction as efficiently as Nutlin inhibits the wild-type HDM2-p53 interaction; also recorded: inhibition of p53 binding to both WT and mutant HDM2

B1: carboxyfluorescein (FAM) labeled 12-1 peptide (FAM-RFMDYWEGL-NH2) (peptide)
peptide: {FAM}-RFMDYWEGL-NH2
notes: that it is not a natural p53 stretch is my surmise
- binding result ([1]; both partners purified): binds
- binding result ([2]; both partners purified): binds
- binding result ([3]; both partners purified): binds
- binding result ([4]; both partners purified): binds
